Test results reported in patent US20060122588A1, “Cryosurgery compositions and methods” (Regents of the University of Minnesota, priority 2002, published 2006).

Columns and labels:
[1] = cited from earlier work; for % Eutectic Concentration (wt./wt.) / Eutectic Temp.: solute in water; for Eutectic Concentration: Table 1, salts used to induce eutectic crystallization
[2] = tested on: AT-1 rat prostate tumor cells; assay: Post-thaw viability of AT-1 cell suspensions in various media on the directional solidification stage (Hoechst/Propidium Iodide membrane integrity assay); format: cell-based; details: end temperature −30° C., 5° C./minute
Method: (§1) In freezing experiments with cell suspensions, a half eutectic concentration solution was mixed with cell culture media (Dulbecco's Modified Eagle's Medium/F-12) in 1 (salt solution): 2 (culture media) volume ratio.
AT-1 rat prostate tumor cells were cultured in vitro under standard tissue culture conditions, as are known. AT-1 cells were suspended in each eutectic changing solution, and kept at about 4° C.
Cultured AT-1 cells were separated from a culture flask by immersion in 0.05% (by volume) trypsin and 0.53 mM EDTA, and then suspended in 5% (by volume) fetal bovine serum (FBS)-supplemented medium such that the final trypsin concentration was <0.005% (by volume). After the separation, the cells were pelleted by centrifugation and the excess medium was removed. […]
Post-thaw viabilities of AT-1 cell suspensions in various media were assessed for varying end temperature of the freezing and thawing protocol on the directional solidification stage. […]
The concentrations of these solutions were determined so that the use of these solutions would not result in excessive killing of the AT-1 cells due to high osmotic pressure. […]
Viability of the AT-1 cell suspensions was measured by a membrane integrity assay using Hoechst and Propidium Iodide. […] After incubation, viability was assessed under a fluorescent microscope by scoring more than 200 cells for each sample.

AT-1 tumor tissues = assay: Histology of AT-1 tumor tissues 2 days after freezing experiments on the directional solidification stage; parameters: species or system rat; details: frozen to −20° C., 400×
Method: FIGS. 7A-7F show images of histology preparations of AT-1 tumor tissues 2 days after the freezing experiments on the directional solidification stage. Control tissues are very similar in all cases (FIGS. 7A, 7C, and 7E). Some cytoplasmic retraction is seen after salt infusion in FIGS. 7C and 7E over the control sample (FIG. 7A), but overall viability appears high. After freezing the samples to −20° C., a reduction in the number and quality of nuclei in all frozen samples is noted (FIGS. 7B, 7D, and 7F). Nuclear changes include darkening, reduction in size of chromatin, pykonsis and in some cases loss of nuclear material. In addition, cell membranes in frozen salt infused samples are indistinct and difficult to identify. All of these changes appear accentuated in the KNO3 and KCl infused samples.

[3] = Onset temperature of eutectic solidification of AT-1 cell suspension media by DSC; format: physicochemical; details: AT-1 cell suspension medium
Method: Controlled cooling and thawing rate were achieved by the DSC and directional solidification stage. Unless otherwise mentioned, cooling and thawing rates were 5° C./min.
The onset temperature of the eutectic solidification was measured using the DSC, as described herein. Generally speaking, the viability of the AT-1 cells in the suspension solutions decreased with end temperature regardless of the media used. Note that the temperatures of noticeable viability drop to coincide with the eutectic crystallization temperatures of each suspension media. When the viability of the AT-1 cell suspension in the 1×NaCl (the onset of eutectic crystallization at about […]) is compared with that of KCl infused AT-1 cell suspension (the onset of eutectic crystallization at about −21° C.), there is 70% less viability at −30° C. in the KCl infused AT-1 cell suspension.

[4] = tested on: AT-1 rat prostate tumor cells; assay: Post-thaw viability with half eutectic concentration KNO3 solution (Example 4); format: cell-based
Method: as §1
AT-1 rat prostate tumor cells were cultured in vitro, as described above. Cultured AT-1 cells were separated from a culture flask by immersion in 0.05% (by volume) trypsin and 0.53 mM EDTA, and then suspended in 5% (by volume) fetal bovine serum (FBS)-supplemented medium such that the final trypsin concentration was <0.005% (by volume). After the separation, the cells were pelleted by centrifugation and the excess medium was removed. The cell pellet was re-suspended into various aqueous solutions (about 1.0 ml) before experiments and nominal cell concentration was about 2×10^6 cells/ml. The suspensions were stored in 1.5 ml microcentrifuge tube on ice (about 4° C.).
Liver tissues were also isolated from the rats.
The directional solidification stage, as described above, was used in the experiments. Controlled cooling and thawing rate were achieved by the DSC and directional solidification stage. Unless otherwise mentioned, cooling and thawing rates were 50° C./min.
For the directional solidification stage, fast thawing rates (about 200° C./min) were employed. […]
Post-thaw viabilities of AT-1 cell suspensions in various media were assessed. […]

In the case of [Ca+2].[Cl-].[Cl-] [CaCl2], the “% Eutectic Concentration (wt./wt.)” value [1] is given as 29.8 % (wt./wt.) and the “Eutectic Temp.” value [1] is given as −55 °C.

In the case of [Br-].[K+] [KBr], the “Eutectic Temp.” value [1] is given as −13.0 °C.

For [Cl-].[K+] [KCl, potassium chloride], the “less viability than AT-1 cell suspension in 1×NaCl” value [2] is listed as 70%, the “histological changes after freezing (nuclei, cell membranes)” value (AT-1 tumor tissues) is listed as “accentuated” and the “Eutectic Concentration” value [1] is listed as 19.7 % wt./wt. For the same compound, the “% Eutectic Concentration (wt./wt.)” value [1] was 19.7% (wt./wt.), the “Eutectic Temp.” value [1] was −11.1 °C and the “onset of eutectic crystallization” value [3] was “about −21 °C”.

For O=[N+]([O-])[O-].[K+] [KNO3, potassium nitrate], the post-thaw viability ([4]; frozen to about −20° C.) was 15.2±7.1%, the “viability of control samples” value ([4]; no freeze/thaw procedure) was 92.1% and the “histological changes after freezing (nuclei, cell membranes)” value (AT-1 tumor tissues) was “accentuated”. The “Eutectic Concentration” value [1] was 10.9 % wt./wt, the “% Eutectic Concentration (wt./wt.)” value [1] was 10.9% (wt./wt.) and the “Eutectic Temp.” value [1] was −2.9 °C.

For [Cl-].[Cl-].[Mg+2] [MgCl2], the “% Eutectic Concentration (wt./wt.)” value [1] is listed as 21.6 % (wt./wt.) and the “Eutectic Temp.” value [1] is listed as −33.6 °C.

For O=S(=O)([O-])[O-].[Mg+2] [MgSO4], the “% Eutectic Concentration (wt./wt.)” value [1] is listed as 19.0% (wt./wt.) and the “Eutectic Temp.” value [1] is listed as −3.9 °C.

For Cl.N [NH4Cl], the “% Eutectic Concentration (wt./wt.)” value [1] is listed as 18.6 % (wt./wt.) and the “Eutectic Temp.” value [1] is listed as −15.8 °C.

In the case of [Cl-].[Na+] [NaCl, sodium chloride], the “Eutectic Concentration” value [1] is listed as 23.6 % wt./wt, the “% Eutectic Concentration (wt./wt.)” value [1] is listed as 23.6% (wt./wt.) and the “Eutectic Temp.” value [1] is listed as −21.8 °C. For the same compound, the “eutectic point of the solution” value ([1]; thermodynamic equilibrium) was “approximately −21.1 °C”.

In the case of OC[C@H]1O[C@@](CO)(O[C@H]2O[C@H](CO)[C@@H](O)[C@H](O)[C@H]2O)[C@@H](O)[C@@H]1O [Sucrose], the “% Eutectic Concentration (wt./wt.)” value [1] is given as 62.5 % (wt./wt.) and the “Eutectic Temp.” value [1] is given as −13.5 °C.
